Laboratory results from US8486900B2, “Method for preparing a Centella asiatica extract rich in madecassoside and in terminoloside” (Bayer Consumer Care AG, priority 2002, dated 2013).

Legend:
IL-1α = assay: IFN-γ-induced intracellular IL-1α production by normal human keratinocytes; format: cell-based; conditions: for IL-1α (intracellular): K02-1H6, IFN-γ 1000 U/ml, 48 h + 24 h
Experimental: In order to evaluate the anti-inflammatory activity of terminoloside, of madecassoside and of the mixture of heterosides, we studied the modulatory effects of these three active agents with respect to the production and release of proinflammatory epidermal cytokines (IL-1α, IL-8, PGE-2) by human keratinocytes in culture, subjected to an irritative stress induced either with interferon-gamma (IFN-γ) or with PMA. Human keratinocytes were isolated from human skin. The cells were cultured in serum-free KGM medium (Keratinocyte Growth Medium, sold by the company Clonetics®), according to the usual techniques set up in the laboratory, at 37° C. in a humid air-CO2 (95%-5%) atmosphere. The cells were seeded into 25 cm^2 flasks and passaged regularly before reaching confluency. The principle of the assay is based on evaluating the production of proinflammatory cytokines by human keratinocytes, in response to an irritative stress. The method is based on measuring the intracellular amount of IL-1α and of the amounts of IL-8 and of PGE-2 released into the extracellular medium by keratinocytes cultured in the absence and in the presence of the products being studied, and stimulated even with interferon-gamma (IFN-γ) or with PMA (phorbol-12-myristate-13-acetate).
The study was carried out on keratinocytes isolated from foreskin of young children (strain K02-1H6).
1. Treatment of the cells for 48 h with the product being studied before induction of the irritative stress; 2. induction of the irritative stress: IFN-γ (1000 U/ml); 3. incubation of the “activated” cells, for 24 h, in the presence of the product being studied; 4. assay: IL-8 (extracellular) and IL-1α (intracellular). Cellular protein assay.
Tables 34 to 36 below group together the intracellular amounts of IL-1α after activation of the cells (+IFN-γ), and the basal amount (−IFN-γ). The IFN-γ-induced production of IL-1α and the anti-inflammatory activity (AIA) were calculated for each concentration according to: Il-1α production=IL-1α(+IFN)−IL-1α(−IFN) AIA=[(IL-1α production(control cells)−IL-1α production(treated cells)/IL-1α production(control cells)]×100

[1] = test system: human keratinocytes, strain K02-1H4; assay: Cytotoxicity, Neutral Red assay on human keratinocytes strain K02-1H4; format: cell-based; conditions: for Viability (72 h), % of control: Example 12, K02-1H4, 72 h
Experimental: In addition, added to the cytotoxicity study was an assay on human keratinocytes, strain K02-1H4, in order to confirm that the concentrations were nontoxic on the target cells.
[…] […] The cell viability was determined by means of a Neutral Red assay.
Added to the cytotoxicity study was an assay on human keratinocytes (strain K02-1H4) in order to confirm the nontoxicity of the concentrations on the “target” cells. Table 24 below groups together all the results (cell viability as % of control).

PGE-2 = assay: PMA-induced release of PGE-2 by human keratinocytes; format: cell-based; conditions: for PGE-2 (extracellular): Example 12, K02-1H6, PMA 10 ng/ml, 48 h + 24 h
Experimental: The principle of the assay is based on evaluating the production of pro-inflammatory cytokines by human keratinocytes in response to an irritative stress. […]
Given the lack of effect of IFN-γ on the production and release of PGE-2, the anti-inflammatory effect of the active agents was studied on normal human keratinocytes (strain K02-1H6) stimulated with PMA. Each active agent was tested at 4 concentrations:
1. Treatment of the cells, for 48 h, with the product being studied before induction of the irritative stress.
2. Induction of the irritative stress: PMA (10 ng/ml).
3. Incubation of the “activated” cells, for 24 h, in the presence of the product being studied.
4. Assay of PGE-2 (extracellular) and assay of cellular proteins.
Tables 37 to 39 below group together the amounts of PGE-2 (pg/μg prot.) obtained after activation of the cells (+PMA), and also the basal amounts (−PMA). The PMA-induced production of PGE-2 and the anti-inflammatory activity (AIA) were calculated, for each concentration, according to: PGE-2 production=[(PGE-2(+PMA)−PGE-2(−PMA)] AIA=[(PGE-2 production(control cells)−PGE-2 production(treated cells))/PGE-2 production(control cells)]×100

## CC1OC(O[C@@H]2C(CO)OC(OCC3OC(OC(=O)C4CC(C)(C)CC5C6=CCC7C(CC(O)C8C(C)(CO)C(O)C(O)CC78C)C6(C)CCC45)[C@@H](O)C(O)[C@@H]3O)[C@@H](O)C2O)[C@@H](O)C(O)[C@H]1O (stereo partly drawn) [Terminoloside, 1-[O-α-L-rhamnopyranosyl-(1-4)-O-β-glucopyranosol-(1-6)]-O-β-D-glucopyranose 2α,3β,6β,23-tetrahydroxyolea-12-en-28-oate]
IL-1α; 0.1 mg/ml
  IL-1α production (+IFN minus −IFN): 6.07
  IL-1α (intracellular): 8.78 pg/μg prot
IL-1α; 0.25 mg/ml
  IL-1α production (+IFN minus −IFN): 5.37
  IL-1α (intracellular): 8.08 pg/μg prot
IL-1α; 0.5 mg/ml
  IL-1α production (+IFN minus −IFN): 4.60
  IL-1α (intracellular): 7.31 pg/μg prot
IL-1α; 1 mg/ml
  IL-1α production (+IFN minus −IFN): 2.31
  IL-1α (intracellular): 5.02 pg/μg prot
IL-1α; Homo sapiens, Keratinocyte, IFN-γ 1000 U/ml, 0.1 mg/ml, read-out: Anti-inflammatory activity (%), IL-1α
  inhibition at 100 µg/mL: 17%
IL-1α; Homo sapiens, Keratinocyte, IFN-γ 1000 U/ml, 0.25 mg/ml, read-out: Anti-inflammatory activity (%), IL-1α
  inhibition at 250 µg/mL: 27%
IL-1α; Homo sapiens, Keratinocyte, IFN-γ 1000 U/ml, 0.5 mg/ml, read-out: Anti-inflammatory activity (%), IL-1α
  inhibition at 500 µg/mL: 37%
IL-1α; Homo sapiens, Keratinocyte, IFN-γ 1000 U/ml, 1 mg/ml, read-out: Anti-inflammatory activity (%), IL-1α
  inhibition at 1000 µg/mL: 68%
[1]; 0.25 mg/ml
  Viability (72 h), % of control: 101%
[1]; 0.5 mg/ml
  Viability (72 h), % of control: 103%
[1]; 0.75 mg/ml
  Viability (72 h), % of control: 103%
[1]; 1.0 mg/ml
  Viability (72 h), % of control: 102%
[1]; 2.5 mg/ml
  Viability (72 h), % of control: 99%
[1]; 5 mg/ml
  Viability (72 h), % of control: 96%
[1]; 10 mg/ml
  Viability (72 h), % of control: 69%
[1]; K02-1H4, 72 h of incubation
  nontoxic concentrations: less than or equal to 2.5 mg/ml
Solubility
  solubility: water-soluble
PGE-2; Example 12, 0.1 mg/ml
  PGE-2 production (+PMA minus −PMA): 494.2
PGE-2; Example 12, 0.25 mg/ml
  PGE-2 production (+PMA minus −PMA): 441.0
PGE-2; Example 12, 0.5 mg/ml
  PGE-2 production (+PMA minus −PMA): 279.9
PGE-2; Example 12, 1 mg/ml
  PGE-2 production (+PMA minus −PMA): 115.2
PGE-2; 0.1 mg/ml
  PGE-2 (extracellular): 660.0 pg/μg prot
PGE-2; 0.25 mg/ml
  PGE-2 (extracellular): 606.80 pg/μg prot
PGE-2; 0.5 mg/ml
  PGE-2 (extracellular): 445.7 pg/μg prot
PGE-2; 1 mg/ml
  PGE-2 (extracellular): 321.0 pg/μg prot
PGE-2; Example 12, PMA 10 ng/ml, 1 mg/ml
  Anti-inflammatory activity (%), PGE-2: 68.6%
PGE-2; Homo sapiens, Keratinocyte, Example 12, PMA 10 ng/ml, 0.1 mg/ml, read-out: Anti-inflammatory activity (%), PGE-2
  inhibition at 100 µg/mL: 0%
PGE-2; Homo sapiens, Keratinocyte, Example 12, PMA 10 ng/ml, 0.25 mg/ml, read-out: Anti-inflammatory activity (%), PGE-2
  inhibition at 250 µg/mL: 10.8%
PGE-2; Homo sapiens, Keratinocyte, Example 12, PMA 10 ng/ml, 0.5 mg/ml, read-out: Anti-inflammatory activity (%), PGE-2
  inhibition at 500 µg/mL: 43.4%
PGE-2; Homo sapiens, Keratinocyte, Example 12, PMA 10 ng/ml, 1 mg/ml, read-out: Anti-inflammatory activity (%), PGE-2
  inhibition at 1000 µg/mL: 69%
